system: Septoria tritici; test: Test E: wheat leaf blotch, test suspension sprayed on wheat seedlings, disease rating; type: in vivo; conditions: 200 ppm test suspension;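 further: 200 ppm unless marked * meaning 40 ppm or ** meaning 10 ppm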

SMILES	Test E disease control rating
CCC(CO)Nc1nccc(-c2c(-c3ccc(F)cc3)nn3c2CCCC3)n1 (stereo not shown) [compound 31]	98%
Fc1ccc(-c2nn3c(c2-c2ccnc(NCC4CCCO4)n2)CCCC3)cc1 (stereo not shown) [compound 34]	94%
C[Si](C)(C)CNc1nccc(-c2c(-c3ccc(F)cc3)nn3c2CCCC3)n1 [compound 35]	100%
CC(C)Nc1nccc(-c2c(-c3ccccc3F)nn3c2CCCC3)n1 [compound 36]	96%
OCCCNc1nccc(-c2c(-c3ccc(F)cc3)nn3c2CCCC3)n1 [compound 37]	68%
CC(CO)Nc1nccc(-c2c(-c3ccccc3F)nn3c2CCCC3)n1 (stereo not shown) [compound 38]	92%
Fc1ccc(-c2nn3c(c2-c2ccnc(NCc4cccs4)n2)CCCC3)cc1 [compound 39]	88%
Fc1ccc(Nc2nccc(-c3c(-c4ccc(F)cc4)nn4c3CCCC4)n2)cc1 [compound 40]	98%
CCN1CCCC1CNc1nccc(-c2c(-c3ccc(F)cc3)nn3c2CCCC3)n1 (stereo not shown) [compound 41]	50%
CC(CO)Nc1nccc(-c2c(-c3ccsc3)nn3c2CCCC3)n1 (stereo not shown) [compound 42]	59%
CC(C)Nc1nccc(-c2c(-c3ccsc3)nn3c2CCCC3)n1 [compound 43]	96%
OC1(CNc2nccc(-c3c(-c4ccc(F)cc4)nn4c3CCCC4)n2)CC1 [compound 44]	100%
Cc1ccccc1-c1nn2c(c1-c1ccnc(NC(C)C)n1)CCCC2 [compound 45]	97%

system: Puccinia recondite f sp. tritici; test: Test B: wheat leaf rust, test suspension sprayed on wheat seedlings, disease rating; type: in vivo; conditions: 200 ppm test suspension;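 further: 200 ppm unless marked * meaning 40 ppm or ** meaning 10 ppm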

SMILES	Test B disease control rating
CCC(CO)Nc1nccc(-c2c(-c3ccc(F)cc3)nn3c2CCCC3)n1 (stereo not shown) [compound 31]	95%
Fc1ccc(-c2nn3c(c2-c2ccnc(NCC4CCCO4)n2)CCCC3)cc1 (stereo not shown) [compound 34]	100%
C[Si](C)(C)CNc1nccc(-c2c(-c3ccc(F)cc3)nn3c2CCCC3)n1 [compound 35]	99%
CC(C)Nc1nccc(-c2c(-c3ccccc3F)nn3c2CCCC3)n1 [compound 36]	91%
OCCCNc1nccc(-c2c(-c3ccc(F)cc3)nn3c2CCCC3)n1 [compound 37]	86%
CC(CO)Nc1nccc(-c2c(-c3ccccc3F)nn3c2CCCC3)n1 (stereo not shown) [compound 38]	94%
Fc1ccc(-c2nn3c(c2-c2ccnc(NCc4cccs4)n2)CCCC3)cc1 [compound 39]	67%
Fc1ccc(Nc2nccc(-c3c(-c4ccc(F)cc4)nn4c3CCCC4)n2)cc1 [compound 40]	85%
CCN1CCCC1CNc1nccc(-c2c(-c3ccc(F)cc3)nn3c2CCCC3)n1 (stereo not shown) [compound 41]	79%
CC(CO)Nc1nccc(-c2c(-c3ccsc3)nn3c2CCCC3)n1 (stereo not shown) [compound 42]	85%
CC(C)Nc1nccc(-c2c(-c3ccsc3)nn3c2CCCC3)n1 [compound 43]	92%
OC1(CNc2nccc(-c3c(-c4ccc(F)cc4)nn4c3CCCC4)n2)CC1 [compound 44]	85%
Cc1ccccc1-c1nn2c(c1-c1ccnc(NC(C)C)n1)CCCC2 [compound 45]	89%

system: Pythium aphanidermatum; test: Test L: bluegrass pythium blight, test suspension sprayed on bluegrass seedlings, disease rating; type: in vivo; conditions: 200 ppm test suspension;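 further: 200 ppm unless marked * meaning 40 ppm or ** meaning 10 ppm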

SMILES	Test L disease control rating
CCC(CO)Nc1nccc(-c2c(-c3ccc(F)cc3)nn3c2CCCC3)n1 (stereo not shown) [compound 31]	99%
Fc1ccc(-c2nn3c(c2-c2ccnc(NCC4CCCO4)n2)CCCC3)cc1 (stereo not shown) [compound 34]	100%
C[Si](C)(C)CNc1nccc(-c2c(-c3ccc(F)cc3)nn3c2CCCC3)n1 [compound 35]	0%
CC(C)Nc1nccc(-c2c(-c3ccccc3F)nn3c2CCCC3)n1 [compound 36]	99%
OCCCNc1nccc(-c2c(-c3ccc(F)cc3)nn3c2CCCC3)n1 [compound 37]	93%
CC(CO)Nc1nccc(-c2c(-c3ccccc3F)nn3c2CCCC3)n1 (stereo not shown) [compound 38]	99%
Fc1ccc(-c2nn3c(c2-c2ccnc(NCc4cccs4)n2)CCCC3)cc1 [compound 39]	0%
Fc1ccc(Nc2nccc(-c3c(-c4ccc(F)cc4)nn4c3CCCC4)n2)cc1 [compound 40]	0%
CCN1CCCC1CNc1nccc(-c2c(-c3ccc(F)cc3)nn3c2CCCC3)n1 (stereo not shown) [compound 41]	91%
CC(CO)Nc1nccc(-c2c(-c3ccsc3)nn3c2CCCC3)n1 (stereo not shown) [compound 42]	100%
CC(C)Nc1nccc(-c2c(-c3ccsc3)nn3c2CCCC3)n1 [compound 43]	100%
OC1(CNc2nccc(-c3c(-c4ccc(F)cc4)nn4c3CCCC4)n2)CC1 [compound 44]	0%
Cc1ccccc1-c1nn2c(c1-c1ccnc(NC(C)C)n1)CCCC2 [compound 45]	85%

system: Erysiphe graminis f. sp. tritici; test: Test A: wheat powdery mildew, test suspension sprayed on wheat seedlings, disease rating; type: in vivo; conditions: 200 ppm test suspension; 100 = 100% disease control, 0 = no control

SMILES	Test A disease control rating
CCC(CO)Nc1nccc(-c2c(-c3ccc(F)cc3)nn3c2CCCC3)n1 (stereo not shown) [compound 31]	0%
Fc1ccc(-c2nn3c(c2-c2ccnc(NCC4CCCO4)n2)CCCC3)cc1 (stereo not shown) [compound 34]	96%
C[Si](C)(C)CNc1nccc(-c2c(-c3ccc(F)cc3)nn3c2CCCC3)n1 [compound 35]	0%
CC(C)Nc1nccc(-c2c(-c3ccccc3F)nn3c2CCCC3)n1 [compound 36]	0%
OCCCNc1nccc(-c2c(-c3ccc(F)cc3)nn3c2CCCC3)n1 [compound 37]	70%
CC(CO)Nc1nccc(-c2c(-c3ccccc3F)nn3c2CCCC3)n1 (stereo not shown) [compound 38]	0%
Fc1ccc(-c2nn3c(c2-c2ccnc(NCc4cccs4)n2)CCCC3)cc1 [compound 39]	0%
Fc1ccc(Nc2nccc(-c3c(-c4ccc(F)cc4)nn4c3CCCC4)n2)cc1 [compound 40]	0%
CCN1CCCC1CNc1nccc(-c2c(-c3ccc(F)cc3)nn3c2CCCC3)n1 (stereo not shown) [compound 41]	0%
CC(CO)Nc1nccc(-c2c(-c3ccsc3)nn3c2CCCC3)n1 (stereo not shown) [compound 42]	0%
CC(C)Nc1nccc(-c2c(-c3ccsc3)nn3c2CCCC3)n1 [compound 43]	0%
OC1(CNc2nccc(-c3c(-c4ccc(F)cc4)nn4c3CCCC4)n2)CC1 [compound 44]	91%
Cc1ccccc1-c1nn2c(c1-c1ccnc(NC(C)C)n1)CCCC2 [compound 45]	41%

system: Fusarium graminearum; test: whole plant or invertebrate; type: in vivo; conditions: 200 ppm test suspension

SMILES	Test C disease control rating
CCC(CO)Nc1nccc(-c2c(-c3ccc(F)cc3)nn3c2CCCC3)n1 (stereo not shown) [compound 31]	94%
Fc1ccc(-c2nn3c(c2-c2ccnc(NCC4CCCO4)n2)CCCC3)cc1 (stereo not shown) [compound 34]	98%
C[Si](C)(C)CNc1nccc(-c2c(-c3ccc(F)cc3)nn3c2CCCC3)n1 [compound 35]	99%
CC(C)Nc1nccc(-c2c(-c3ccccc3F)nn3c2CCCC3)n1 [compound 36]	99%
OCCCNc1nccc(-c2c(-c3ccc(F)cc3)nn3c2CCCC3)n1 [compound 37]	96%
CC(CO)Nc1nccc(-c2c(-c3ccccc3F)nn3c2CCCC3)n1 (stereo not shown) [compound 38]	96%
Fc1ccc(-c2nn3c(c2-c2ccnc(NCc4cccs4)n2)CCCC3)cc1 [compound 39]	60%
Fc1ccc(Nc2nccc(-c3c(-c4ccc(F)cc4)nn4c3CCCC4)n2)cc1 [compound 40]	84%
CCN1CCCC1CNc1nccc(-c2c(-c3ccc(F)cc3)nn3c2CCCC3)n1 (stereo not shown) [compound 41]	0%
CC(CO)Nc1nccc(-c2c(-c3ccsc3)nn3c2CCCC3)n1 (stereo not shown) [compound 42]	66%
CC(C)Nc1nccc(-c2c(-c3ccsc3)nn3c2CCCC3)n1 [compound 43]	98%
OC1(CNc2nccc(-c3c(-c4ccc(F)cc4)nn4c3CCCC4)n2)CC1 [compound 44]	99%
Cc1ccccc1-c1nn2c(c1-c1ccnc(NC(C)C)n1)CCCC2 [compound 45]	0%

system: Phytophthora infestans; test: whole plant or invertebrate; type: in vivo; conditions: 200 ppm test suspension

SMILES	Test J disease control rating
CCC(CO)Nc1nccc(-c2c(-c3ccc(F)cc3)nn3c2CCCC3)n1 (stereo not shown) [compound 31]	80%
Fc1ccc(-c2nn3c(c2-c2ccnc(NCC4CCCO4)n2)CCCC3)cc1 (stereo not shown) [compound 34]	91%
C[Si](C)(C)CNc1nccc(-c2c(-c3ccc(F)cc3)nn3c2CCCC3)n1 [compound 35]	67%
CC(C)Nc1nccc(-c2c(-c3ccccc3F)nn3c2CCCC3)n1 [compound 36]	90%
OCCCNc1nccc(-c2c(-c3ccc(F)cc3)nn3c2CCCC3)n1 [compound 37]	95%
CC(CO)Nc1nccc(-c2c(-c3ccccc3F)nn3c2CCCC3)n1 (stereo not shown) [compound 38]	95%
Fc1ccc(-c2nn3c(c2-c2ccnc(NCc4cccs4)n2)CCCC3)cc1 [compound 39]	0%
Fc1ccc(Nc2nccc(-c3c(-c4ccc(F)cc4)nn4c3CCCC4)n2)cc1 [compound 40]	0%
CCN1CCCC1CNc1nccc(-c2c(-c3ccc(F)cc3)nn3c2CCCC3)n1 (stereo not shown) [compound 41]	0%
CC(CO)Nc1nccc(-c2c(-c3ccsc3)nn3c2CCCC3)n1 (stereo not shown) [compound 42]	99%
CC(C)Nc1nccc(-c2c(-c3ccsc3)nn3c2CCCC3)n1 [compound 43]	97%
OC1(CNc2nccc(-c3c(-c4ccc(F)cc4)nn4c3CCCC4)n2)CC1 [compound 44]	65%
Cc1ccccc1-c1nn2c(c1-c1ccnc(NC(C)C)n1)CCCC2 [compound 45]	76%

system: Septoria nodorum; test: Test D: wheat glume blotch, test suspension sprayed on wheat seedlings, disease rating; type: in vivo; conditions: 200 ppm test suspension

SMILES	Test D disease control rating
CCC(CO)Nc1nccc(-c2c(-c3ccc(F)cc3)nn3c2CCCC3)n1 (stereo not shown) [compound 31]	78%
Fc1ccc(-c2nn3c(c2-c2ccnc(NCC4CCCO4)n2)CCCC3)cc1 (stereo not shown) [compound 34]	100%
C[Si](C)(C)CNc1nccc(-c2c(-c3ccc(F)cc3)nn3c2CCCC3)n1 [compound 35]	99%
CC(C)Nc1nccc(-c2c(-c3ccccc3F)nn3c2CCCC3)n1 [compound 36]	96%
OCCCNc1nccc(-c2c(-c3ccc(F)cc3)nn3c2CCCC3)n1 [compound 37]	0%
CC(CO)Nc1nccc(-c2c(-c3ccccc3F)nn3c2CCCC3)n1 (stereo not shown) [compound 38]	64%
Fc1ccc(-c2nn3c(c2-c2ccnc(NCc4cccs4)n2)CCCC3)cc1 [compound 39]	60%
Fc1ccc(Nc2nccc(-c3c(-c4ccc(F)cc4)nn4c3CCCC4)n2)cc1 [compound 40]	99%
CCN1CCCC1CNc1nccc(-c2c(-c3ccc(F)cc3)nn3c2CCCC3)n1 (stereo not shown) [compound 41]	0%
CC(CO)Nc1nccc(-c2c(-c3ccsc3)nn3c2CCCC3)n1 (stereo not shown) [compound 42]	0%
CC(C)Nc1nccc(-c2c(-c3ccsc3)nn3c2CCCC3)n1 [compound 43]	90%
OC1(CNc2nccc(-c3c(-c4ccc(F)cc4)nn4c3CCCC4)n2)CC1 [compound 44]	89%
Cc1ccccc1-c1nn2c(c1-c1ccnc(NC(C)C)n1)CCCC2 [compound 45]	60%
